The record followed here is US5223169A, “Hydrolase surfactant systems and their use in laundering” (priority 1991, dated 1993).

The subject of experiment [1] is enzyme from P. putida ATCC 53552 (lipase GC-1065). Put plainly: pH-stat assay of triglyceride emulsion hydrolysis; critical oil-to-surfactant ratio. It is filed as biochemical, Pseudomonas putida. Particulars: for Enzyme Activity (initial rate of hydrolysis): enzyme 2 ppm; for Specific Activity determined from initial rates, GC-1065, High / Critical Ratio, GC-1065, High / Critical Ratio, GC-1065, Low / Specific Activity determined from initial rates, GC-1065, Low: trioctanoin emulsions; for Specific Activity determined from initial rates, GC-1065, High: high surfactant conc. as E41; for Critical Ratio, GC-1065, High / Critical Ratio, GC-1065, Low: lipase ~2 ppm; for Critical Ratio, GC-1065, High: high surfactant conc.: SDS 10 mM, C12 LAS 5 mM, Neodol 25-9 5 mM, Neodol 25-3S 10 mM, Surfonic JL-80X 5 mM, Triton X-100 10 mM, C16 DAPS 10 mM; for Critical Ratio, GC-1065, Low: low surfactant conc.: SDS 2 mM, Surfonic JL-80X 0.5 mM, Triton X-100 2 mM, C16 DAPS 0.5 mM; for Specific Activity determined from initial rates, GC-1065, Low: low surfactant conc. as E40. From the text: (§1) To determine the critical ratio for any specific enzyme-surfactant combination, aliquots of an aqueous solution, each containing a determined (constant) amount of the enzyme which is effective in the absence of any surfactant to hydrolyze the triglycerides in an oily stain on a determined (constant) amount of a fabric soiled by a determined (constant) amount of a triglyceride oil, are mixed with a determined (constant) amount of a surfactant which is within the range of the amounts conventionally present in home laundry solutions, e.g., from about 0.2 to 1.5. mM, and which is effective to inhibit the hydrolyzing activity of the enzyme. To the aliquots are added a hydrolysis activator, e.g., trioctanoin, in increasing amounts and the hydrolyzing activity of the enzyme in the various solutions is determined.
(§2) The experiments determining enzyme activity, such as those set out in Tables IA and IB, were carried out as follows:
(§3) The desired amount of triglyceride was weighed into an appropriate size beaker, on a Mettler balance (model number AE163). The corresponding amount of surfactant was added to the triglyceride, from a previously prepared aqueous surfactant stock solution, and the triglyceride and surfactant mixed manually. The sample was then adjusted to the desired weight using doubly distilled H2 O. Emulsification of the sample was carried out, prior to assaying enzyme activity, with a probe sonicator (Braun-Sonic model 2000), on ice, for approx. 2 minutes.
(§4) (ii) Enzyme Activity Measurement:
(§5) This was achieved by monitoring the rate of acid liberation, from the enzymatic hydrolysis of the triglycerides in the emulsion. The assay was initiated by adding approx. 2 ppm lipase to 10 ml of the prepared emulsion. The acid liberated was monitored by autotitration, on a Radiometer pH-stat (model number ABU80) to an endpoint of a pH of 10. Initial rates were recorded for the first 5 minutes of the reaction, and the reaction rates reported as μmole H^+ titrated . min ^-1 mgE^-1. Occasionally enzyme activity is reported as % total oil hydrolyzed in 14 min. In these examples, the reaction was allowed to run for 14 min. and the amount of acid titrated recorded. The % total oil (triglyceride) hydrolyzed was then calculated by dividing the recorded value with the theoretically calculated value assuming three equivalents of oleic acid was produced for each triglyceride equivalent. All assays were run at ambient temperatures.

In experiment [2] the target is T1, Enzyme Amano P (Burkholderia cepacia, UniProt P22088).
T1 construct: purchased Amano Co
Described as above. It is filed as biochemical, P. fluorescens. To be noted: trioctanoin 5 mm + hexadecane 10 mm, Neodol 25-3S 0.5, system ratio 40.
Text: as §1, §2, §3, §4, §5

Setting [3] is: C12 LAS 1 mM, Neodol 25-9 0.5 mM, Neodol 25-3S 2 mM.
Where [4] appears, read: Table II, trioctanoin, surfactant conc.: SDS 2 mM, C12 LAS 1 mM, Neodol 25-3S 2 mM, Neodol 25-9 0.5 mM, Surfonic JL80X 0.5 mM, Triton X100 2 mM.

T1 sequence (P22088 45-364): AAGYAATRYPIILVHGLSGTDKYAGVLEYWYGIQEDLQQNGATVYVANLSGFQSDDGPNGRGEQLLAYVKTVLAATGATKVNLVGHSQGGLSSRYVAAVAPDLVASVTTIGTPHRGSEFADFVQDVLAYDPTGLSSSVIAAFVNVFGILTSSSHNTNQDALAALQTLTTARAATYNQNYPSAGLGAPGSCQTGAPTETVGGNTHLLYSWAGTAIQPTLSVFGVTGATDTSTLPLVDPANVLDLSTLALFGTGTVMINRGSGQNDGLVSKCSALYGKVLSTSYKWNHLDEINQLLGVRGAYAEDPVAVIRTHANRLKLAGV

As to `CCCCCCCC/C=C\CCCCCCCC(=O)[O-].[Na+]` [Na Oleate, sodium oleate], the “Enzyme Activity” value was 0 μmole H^+ titrated . min ^-1 m in experiment [1] (triolein substrate, surfactant 0.3 mM, system ratio 1); 0 μmole H^+ titrated . min ^-1 m in experiment [1] (triolein substrate, surfactant 0.3 mM, system ratio 5); 0 μmole H^+ titrated . min ^-1 m in experiment [1] (triolein substrate, surfactant 0.3 mM, system ratio 10); 60 μmole H^+ titrated . min ^-1 m in experiment [1] (triolein substrate, surfactant 0.3 mM, system ratio 20); 90 μmole H^+ titrated . min ^-1 m in experiment [1] (triolein substrate, surfactant 0.3 mM, system ratio 30).

`CCCCCCCCCCCCCCCC[N+](C)(C)CCCS(=O)(=O)[O-]` [C16 DAPS]: the “Enzyme Activity (initial rate of hydrolysis)” value in experiment [1] (trioctanoin 0.5 mM, surfactant 0.5 mM, system ratio 1) is reported as 0 μmole H^+ released min^-1 mgE^; in experiment [1] (trioctanoin 2.5 mM, surfactant 0.5 mM, system ratio 5), 0 μmole H^+ released min^-1 mgE^; in experiment [1] (trioctanoin 5 mM, surfactant 0.5 mM, system ratio 10), 0 μmole H^+ released min^-1 mgE^; in experiment [1] (trioctanoin 10 mM, surfactant 0.5 mM, system ratio 20), 334 μmole H^+ released min^-1 mgE^; in experiment [1] (trioctanoin 10 mM, surfactant 10 mM, system ratio 1), 0 μmole H^+ released min^-1 mgE^; in experiment [1] (trioctanoin 15 mM, surfactant 0.5 mM, system ratio 30), 405 μmole H^+ released min^-1 mgE^. Further, the “Enzyme Activity (initial rate of hydrolysis)” value in experiment [1] (trioctanoin 20 mM, surfactant 0.5 mM, system ratio 40) is listed as 370 μmole H^+ released min^-1 mgE^; in experiment [1] (trioctanoin 50 mM, surfactant 10 mM, system ratio 5) it was 0 μmole H^+ released min^-1 mgE^; in experiment [1] (trioctanoin 200 mM, surfactant 10 mM, system ratio 20) it was 398 μmole H^+ released min^-1 mgE^; in experiment [1] (trioctanoin 300 mM, surfactant 10 mM, system ratio 30), 370 μmole H^+ released min^-1 mgE^; in experiment [1] (trioctanoin 400 mM, surfactant 10 mM, system ratio 40), 417 μmole H^+ released min^-1 mgE^. Moreover, the “critical ratio (system ratio of oil to surfactant at which enzymatic activity begins)” value in experiment [1] (trioctanoin as oil, surfactant 0.5 and 10 mM (Table IA)) is recorded as 10-20. The “Specific Activity determined from initial rates, GC-1065, High” value in experiment [1] is given as 450 μeq acid/min.mg. In experiment [1], the “Critical Ratio, GC-1065, High” value is reported as 10-20. Further, in experiment [1] (setting [3]), the “Critical Ratio, GC-1065, Low” value is 10-20. The “Specific Activity determined from initial rates, GC-1065, Low” value in experiment [1] amounted to 450 μeq acid/min.mg.

In the case of `CCCCCCCCCCCC(=O)N(CC)CC` [N,N-diethyldodecanamide], the “Enzyme Activity” value in experiment [1] (no trioctanoin, N,N-diethyldodecanamide 10.0 mm, Neodol 25-9 0.5 mm) was < 5 μeq of fatty acid produced in 14 minutes; in experiment [1] (trioctanoin 2.5 mm, N,N-diethyldodecanamide 2.5 mm, Neodol 25-9 0.5 mm), 5 μeq of fatty acid produced in 14 minutes; in experiment [1] (trioctanoin 2.5 mm, N,N-diethyldodecanamide 5.0 mm, Neodol 25-9 0.5 mm) it was 12 μeq of fatty acid produced in 14 minutes; in experiment [1] (trioctanoin 2.5 mm, N,N-diethyldodecanamide 7.5 mm, Neodol 25-9 0.5 mm), 19 μeq of fatty acid produced in 14 minutes.

Regarding `CCCCCCCCCCCCCCCC` [Hexadecane, hexadecane], the “Enzyme Activity” value in experiment [2] is listed as 45 μmole H^+ released min^-1 mgE^; in experiment [1] (triolein 0.3 mM + hexadecane 1.2 mM, Surfonic JL-80X 0.3 mM, system ratio 5) it was 8 μmole H^+ released min^-1 mgE^; in experiment [1] (triolein 0.3 mM + hexadecane 1.2 mM, Surfonic JL-80X 0.3 mM, system ratio 5, listed as hexadecane) it was “active”.

As for Triton X-100, in experiment [1] (setting [4]), the “Critical Ratio” value is on record as 10-15 and the “Enzyme Activity” value is reported as 450 μmole H^+ released min^-1 mgE^. Besides, in experiment [1], the “Specific Activity determined from initial rates, GC-1065, High” value amounted to 400 μeq acid/min.mg; the “Critical Ratio, GC-1065, High” value is on record as 15-20; the “Specific Activity determined from initial rates, GC-1065, Low” value came to 450 μeq acid/min.mg. In experiment [1] (setting [3]), the “Critical Ratio, GC-1065, Low” value is on record as 10-15.
